For the data set the following is noted: storage 40° C., 75% relative humidity. How it is done:
The amorphous solid of a reduced glutathione-sodium salt obtained in (1) of Example 1, and the final crystal of a reduced glutathione-sodium salt obtained in Example 1 were compared for hygroscopicity under the following conditions.
Storage conditions: 40° C., 75% relative humidity (adjusted with saturated brine)
Measurement conditions: About 0.3 g of a sample was weighed with a precision balance, and charged into a plastic container. After being stored under the foregoing storage conditions, the sample was weighed, and the percentage of weight change was calculated.
The measured sample weight at each time point is relative to the 100% initial weight at the start of testing. In table 5, the symbol “-” means no measurement.

Where two headings read alike, the source gives them in different places.

With `N[C@@H](CCC(=O)N[C@@H](CS)C(=O)NCC(=O)O)C(=O)[O-].[Na+]` [Amorphous, reduced glutathione-sodium salt], the “weight (%) relative to 100% initial weight” value worked out at 100% (elapsed time 0 h); 100.7% (elapsed time 0.25 h); 104.1% (elapsed time 2 h); 106.2% (elapsed time 4 h); 110.2% (elapsed time 10 h); 117.3% (elapsed time 20 h). The “weight (%) relative to 100% initial weight” value (elapsed time 48 h) was 125.8%.

In the case of `N[C@@H](CCC(=O)N[C@@H](CS)C(=O)NCC(=O)O)C(=O)[O-].[Na+]` [Crystal, reduced glutathione-sodium salt], the “weight (%) relative to 100% initial weight” value reads like this: (elapsed time 0 h) 100%; (elapsed time 2 h) 100.7%; (elapsed time 10 h) 101.9%; (elapsed time 20 h) 102%; (elapsed time 48 h) 102.9%. For the same compound, for the setting “up to 48 h”, the “hygroscopicity / preservation stability compared with the amorphous solid” value was “less likely to absorb moisture than the amorphous solid”.

Values taken from US10640532B2, “Crystal of reduced glutathione” (University Public Corporation Osaka, priority 2015, dated 2020).
